From the supplement of paper PMC11616607

Assays:
Assay in all cases: drug sensitivity score (DSS) from 5-point dose-response viability curve (DSS (area-under-curve based score)); higher = more sensitive (stronger growth inhibition or killing); extreme values may be limits of the assay
Conditions in all cases: exposure time: 72 h; concentration range: 5 concentrations over 10,000-fold range
CAOV3 = system: CAOV3
In short: (§1)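 Ovarian cancer and normal ovarian cell lines were tested in 384-well plates, with drugs dispensed acoustically (Echo 550) in DMSO or water at five concentrations covering a 10,000-fold range. After 1,500 cells per well were added, plates were incubated for 3 days at 37°C and 5% CO2, and viability was read by CellTiter-Glo luminescence on a PHERAstar FS. Breeze software gave a drug sensitivity score for each cell line and drug, where a higher score means greater sensitivity. A value of zero means no response.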

COV318 = system: COV318
In short: as §1

COV362 = system: COV362
In short: as §1

HOSE1C = system: HOSE1C
In short: as §1

HOSE2C = system: HOSE2C
In short: as §1

JHOS2 = system: JHOS2
In short: as §1

Kuramochi = system: Kuramochi
In short: as §1

OV90 = system: OV90
In short: as §1

OVCAR4 = system: OVCAR4
In short: as §1

OVCAR5 = system: OVCAR5
In short: as §1

OVCAR8 = system: OVCAR8
In short: as §1

Ovsaho = system: Ovsaho
In short: as §1

SMILES	drug sensitivity score (CAOV3)	drug sensitivity score (COV318)	drug sensitivity score (COV362)	drug sensitivity score (HOSE1C)	drug sensitivity score (HOSE2C)	drug sensitivity score (JHOS2)	drug sensitivity score (Kuramochi)	drug sensitivity score (OV90)	drug sensitivity score (OVCAR4)	drug sensitivity score (OVCAR5)	drug sensitivity score (OVCAR8)	drug sensitivity score (Ovsaho)
CNC(=O)c1ccc(-c2cnc3ncc(Cc4ccc5ncccc5c4)n3n2)cc1F [Capmatinib]	0	0	0	0	0	0	0.1	0	0	0	0	0
C=C1C[C@@H]2CC[C@@]34C[C@H]5O[C@H]6[C@@H](O3)[C@H]3O[C@H](CC[C@@H]3O[C@H]6[C@H]5O4)CC(=O)C[C@@H]3[C@@H](OC)[C@@H](C[C@H](O)CN)O[C@H]3C[C@H]3O[C@@H](CC[C@@H]1O2)C[C@@H](C)C3=C [Eribulin]	25.8	4.2	7.9	25.8	24.3	9.1	12.9	20.3	6.3	20.5	24	12
Cc1nc(Nc2ncc(C(=O)Nc3c(C)cccc3Cl)s2)cc(N2CCN(CCO)CC2)n1 [Dasatinib]	9.9	0.2	8.2	4.6	6	3.5	18.5	5.5	4.6	8	9.1	12.1
CCCCCCCCCCCCCCCCOP(=O)([O-])OCC[N+](C)(C)C [Miltefosine]	12.8	4.7	3.4	5.5	5.9	11.5	5.8	4.1	3.5	9.1	5	7.3
O=C(O)C(=O)O.[NH-][C@@H]1CCCC[C@H]1[NH-].[Pt+2] [Oxaliplatin]	11.8	5	0.2	10.7	6	7.8	6.8	6.9	8.5	11.4	6.8	9
CCc1c(C(=O)C(N)=O)c2c(OCC(=O)O)cccc2n1Cc1ccccc1 [Varespladib]	0	0	0	0	0	0.1	0	0	0	0	0	0
Cn1ncc(Cl)c1-c1cc(C(=O)N[C@H](CN)Cc2ccc(F)c(F)c2)oc1Cl [Uprosertib]	0.9	0.4	0	3.2	2.1	0	1	0.7	0	0.9	0	0.6
FC(F)(F)c1ccc(CNc2ccc(Cc3c[nH]c4ncc(Cl)cc34)cn2)cn1 [Pexidartinib]	0.8	0.7	0	0	0	5	0.6	0.7	1.3	2.3	1.8	0.1
N#CC(c1ccnc(OCc2ccc(CN3CCOCC3)cc2)n1)c1nc2ccccc2s1 (stereo not given) [Bentamapimod]	1.5	1.3	3.8	0	0.3	1.4	2	5.5	1.8	4.5	2.3	1.1
Cn1nccc1Nc1nccc(-c2ccn([C@H](CO)c3ccc(Cl)c(F)c3)c(=O)c2)n1 [Ravoxertinib]	6	0	0.2	0	0	3.7	4.8	13.6	0.8	8.8	6.9	4.7
COC(=O)C[C@](O)(CCCC(C)(C)O)C(=O)O[C@@H]1C(OC)=C[C@]23CCCN2CCc2cc4c(cc2[C@H]13)OCO4 [Omacetaxine]	28.7	17.4	19.2	31	18.6	19.3	18.3	23.3	20.9	23.4	24.1	19.5
COc1ccc(-c2ccc3ncc4c(c3c2)n(-c2ccc(N3CCNCC3)c(C(F)(F)F)c2)c(=O)n4C)cn1 [NVP-BGT226]	12.7	9.3	4.6	22.2	15.7	11.6	10.2	17.2	13.6	14.6	14.9	15.6
O=C(NC1CCNCC1)c1n[nH]cc1NC(=O)c1c(Cl)cccc1Cl [AT7519]	13.9	6.2	12	16.6	8	18	9.3	14.2	9.3	13.5	15.5	8.9
COc1cc(N2CCC(N3CCN(C)CC3)CC2)ccc1Nc1ncnc(Nc2ccccc2S(=O)(=O)C(C)C)n1 [ASP3026]	6.6	2.9	3.3	3.4	6.4	4.1	4	5.2	4.3	8.2	4.3	4.7
CN1CCN(C2CCC(n3cc(-c4ccc(Oc5ccccc5)cc4)c4c(N)ncnc43)CC2)CC1 (stereo not given)	11.4	6.9	11.5	7.8	9.3	7.1	12.6	10.3	7.6	15.1	9.4	15.6
CCCCNc1ncc(C(=O)NCc2ccc(-n3ccnc3)cc2)c(NC2CCC(O)CC2)n1 (stereo not given) [UNC2881]	0.2	0	0	0	0.5	0	0	1.2	0.1	0.6	0	0.8
CC(C)(C)C[C@@H]1N[C@@H](C(=O)N[C@H]2CC[C@H](O)CC2)[C@H](c2cccc(Cl)c2F)[C@]12C(=O)Nc1cc(Cl)ccc12	0	0.3	1.2	14.7	16.9	0	1.5	2.1	0.1	0.4	0.4	1.4
C=CCc1cccc(/C=N/NC(=O)CN2CCN(Cc3ccccc3)CC2)c1O [PAC-1]	3.2	0.2	0.4	3.1	2.7	0.7	2.1	2.6	3	1.7	4	4
C=CC[C@@H]1/C=C(\C)C[C@H](C)C[C@H](OC)[C@H]2O[C@@](O)(C(=O)C(=O)N3CCCC[C@H]3C(=O)O[C@H](/C(C)=C/[C@@H]3CC[C@@H](O)[C@H](OC)C3)[C@H](C)[C@@H](O)CC1=O)[C@H](C)C[C@@H]2OC [Tacrolimus]	0.5	0	0.1	0.3	0	1.8	1	0	0.3	0.5	3.4	0.7
COC(=O)c1ccc2c(c1)[nH]c1ncnc(NCCCN3CCCCC3)c12 [UM729]	0	0	0	0.2	0	0	0	0	0	1	1.6	0.1
COc1ccc(C[C@H](NC(=O)[C@H](C)NC(=O)CN2CCOCC2)C(=O)N[C@@H](Cc2ccccc2)C(=O)C2(C)CO2)cc1 (stereo in doubt) [ONX-0914]	17.9	12.3	17.9	27.9	21.3	16.1	11.6	19.8	17.1	18.2	17.7	19.6
COc1ccc2[nH]cc(/C=C3\C(=O)Nc4ccc(NC(=O)CCN5CCCCC5)cc43)c2c1	6.3	5.4	8.7	4.8	6.1	5	5.7	11.7	4.9	9.4	8.8	4.6
C=C(c1ccc(C(=O)O)cc1)c1cc2c(cc1C)C(C)(C)CCC2(C)C [Bexarotene]	1.5	0.1	0	0	0	1.3	0.1	1.3	0	0	0.1	0
C[C@H](Nc1ncnc2nc[nH]c12)c1cc2cccc(Cl)c2c(=O)n1-c1ccccc1 [Duvelisib]	0.1	0	0	0.2	0	0	2	0	0.7	0	0	1.4
CO[C@@]12[C@H](COC(N)=O)C3=C(C(=O)C(C)=C(N)C3=O)N1C[C@@H]1N[C@@H]12 [Mitomycin C]	4.7	0	0	0	0	0	0	0.9	0	0	0	0
COc1cc(OC)cc(N(CCNC(C)C)c2ccc3ncc(-c4cnn(C)c4)nc3c2)c1 [Erdafitinib]	0	3.5	0	3.2	11.2	0	0	0	2.6	0	0	0
Cc1[nH]nc(C(F)(F)F)c1Cc1sc2c(c1C(=O)N1C[C@](C)(O)CO1)c(=O)n(C)c(=O)n2C(C)C [AZD3965]	0	0	0	0	0	0	0	4.2	0	0	0	0.8
N.N.[Cl][Pt][Cl] [Cisplatin]	16.5	11.7	3.3	18.3	16.4	4.3	11.2	4.8	10.7	8.8	5	15.7
O=C(/C=C\n1cnc(-c2cc(C(F)(F)F)cc(C(F)(F)F)c2)n1)NNc1ccccn1 [Verdinexor]	9.2	3.6	4.7	22.2	6.1	7	3.1	5.1	5.4	7.5	10.9	7.6
Cn1ncnc1[C@H]1c2n[nH]c(=O)c3cc(F)cc(c23)N[C@@H]1c1ccc(F)cc1 [Talazoparib]	4.1	3.1	0	10.1	8.7	3	4.3	5.1	1.9	3.2	5.7	4
